IC50 data for twelve compounds are collected here from ChEMBL document CHEMBL1149965, “Synthesis and biological evaluation of conformationally constrained bicyclic and tricyclic balanol analogues as inhibitors of protein kinase C” (Bioorg Med Chem Lett, 1995).

pIC50: −log10 of the molar value. Where only a bound is given, the exact number is not on record here.

Test [1] addresses Protein kinase C eta type (Homo sapiens, UniProt P24723). The test can be described thus: Inhibition of Protein kinase C eta.
The target in test [2] is Protein kinase C alpha type (Homo sapiens, UniProt P17252). The test can be described thus: Inhibition of Protein kinase C alpha.
Test [3] has as its target T1, Protein kinase C beta type (Homo sapiens, UniProt P05771). Nature of the test: Inhibition of Protein kinase C beta 2.
For test [4], the target named is cAMP-dependent protein kinase (PKA) (Homo sapiens, UniProt P22694+P17612+P22612). The test can be described thus: Inhibition of Protein Kinase A. The class given is protein assay.
Test [5] has as its target T2, Protein kinase C zeta type (Homo sapiens, UniProt Q05513).
T2 sequence (Q05513 whole entry): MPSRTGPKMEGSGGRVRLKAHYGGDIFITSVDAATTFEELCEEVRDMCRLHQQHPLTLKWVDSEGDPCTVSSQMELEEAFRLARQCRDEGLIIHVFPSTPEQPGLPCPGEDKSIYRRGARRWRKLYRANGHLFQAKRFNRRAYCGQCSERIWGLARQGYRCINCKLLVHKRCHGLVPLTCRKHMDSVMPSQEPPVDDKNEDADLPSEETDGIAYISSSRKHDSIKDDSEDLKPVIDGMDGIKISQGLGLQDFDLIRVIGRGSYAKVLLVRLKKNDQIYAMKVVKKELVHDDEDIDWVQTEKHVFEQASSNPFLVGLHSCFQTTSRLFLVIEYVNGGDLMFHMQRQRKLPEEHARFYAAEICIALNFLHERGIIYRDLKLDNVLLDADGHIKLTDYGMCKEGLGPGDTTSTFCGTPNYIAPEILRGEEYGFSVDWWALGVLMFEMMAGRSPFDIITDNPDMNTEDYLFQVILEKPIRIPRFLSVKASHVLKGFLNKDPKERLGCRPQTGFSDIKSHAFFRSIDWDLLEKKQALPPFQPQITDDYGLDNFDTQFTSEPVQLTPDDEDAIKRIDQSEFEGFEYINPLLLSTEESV
The test can be described thus: Inhibition of Protein kinase C zeta.

For test [6], the target named is T3, Protein kinase C epsilon type (Homo sapiens, UniProt Q02156).
T3 sequence (Q02156 whole entry): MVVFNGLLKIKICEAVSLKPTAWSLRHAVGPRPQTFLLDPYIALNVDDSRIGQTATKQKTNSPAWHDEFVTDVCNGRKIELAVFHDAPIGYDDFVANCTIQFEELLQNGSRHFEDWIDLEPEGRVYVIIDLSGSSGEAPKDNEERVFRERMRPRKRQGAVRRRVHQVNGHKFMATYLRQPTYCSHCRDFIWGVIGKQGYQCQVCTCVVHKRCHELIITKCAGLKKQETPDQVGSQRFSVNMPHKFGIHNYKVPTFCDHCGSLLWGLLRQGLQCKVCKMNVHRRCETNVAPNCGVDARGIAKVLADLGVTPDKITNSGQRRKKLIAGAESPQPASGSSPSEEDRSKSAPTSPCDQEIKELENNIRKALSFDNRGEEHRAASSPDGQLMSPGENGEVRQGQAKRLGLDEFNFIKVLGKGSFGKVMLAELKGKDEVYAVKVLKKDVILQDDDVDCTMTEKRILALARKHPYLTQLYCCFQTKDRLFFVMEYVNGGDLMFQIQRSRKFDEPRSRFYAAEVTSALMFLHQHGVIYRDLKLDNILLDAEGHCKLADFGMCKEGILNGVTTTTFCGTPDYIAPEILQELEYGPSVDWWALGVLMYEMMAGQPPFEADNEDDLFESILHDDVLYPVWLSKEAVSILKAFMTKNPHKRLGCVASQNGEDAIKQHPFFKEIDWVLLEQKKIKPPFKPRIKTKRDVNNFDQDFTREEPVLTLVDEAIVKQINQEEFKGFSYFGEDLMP
Nature of the test: Inhibition of Protein kinase C epsilon.

Test [7] concerns the target Protein kinase C delta type (Homo sapiens, UniProt Q05655). Nature of the test: Inhibition of Protein kinase C delta.
For test [8], the target named is Protein kinase C gamma type (Homo sapiens, UniProt P05129). Nature of the test: Inhibition Protein kinase C gamma.
Test [9] addresses T1, Protein kinase C beta type. Nature of the test: Inhibition of Protein kinase C beta 1.

T1 sequence (P05771 whole entry): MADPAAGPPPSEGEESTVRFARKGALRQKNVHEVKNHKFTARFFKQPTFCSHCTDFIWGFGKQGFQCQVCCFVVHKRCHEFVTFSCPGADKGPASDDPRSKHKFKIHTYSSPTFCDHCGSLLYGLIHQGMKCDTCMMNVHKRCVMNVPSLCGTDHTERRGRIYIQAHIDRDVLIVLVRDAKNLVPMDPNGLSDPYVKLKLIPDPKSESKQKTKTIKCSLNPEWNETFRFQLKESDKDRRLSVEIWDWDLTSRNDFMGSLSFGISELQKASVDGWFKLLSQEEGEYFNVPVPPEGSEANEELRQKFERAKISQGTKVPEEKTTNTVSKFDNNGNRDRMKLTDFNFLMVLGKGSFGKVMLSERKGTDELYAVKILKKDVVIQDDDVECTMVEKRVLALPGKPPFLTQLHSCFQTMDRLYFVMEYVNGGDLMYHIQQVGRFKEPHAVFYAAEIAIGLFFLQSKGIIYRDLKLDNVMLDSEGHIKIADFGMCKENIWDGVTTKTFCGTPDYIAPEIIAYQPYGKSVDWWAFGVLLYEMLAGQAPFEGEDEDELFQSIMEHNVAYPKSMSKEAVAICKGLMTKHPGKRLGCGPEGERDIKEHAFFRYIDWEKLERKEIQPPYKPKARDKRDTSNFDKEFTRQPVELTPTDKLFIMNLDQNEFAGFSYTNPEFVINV
Sequence of Protein kinase C delta type (Q05655 whole entry): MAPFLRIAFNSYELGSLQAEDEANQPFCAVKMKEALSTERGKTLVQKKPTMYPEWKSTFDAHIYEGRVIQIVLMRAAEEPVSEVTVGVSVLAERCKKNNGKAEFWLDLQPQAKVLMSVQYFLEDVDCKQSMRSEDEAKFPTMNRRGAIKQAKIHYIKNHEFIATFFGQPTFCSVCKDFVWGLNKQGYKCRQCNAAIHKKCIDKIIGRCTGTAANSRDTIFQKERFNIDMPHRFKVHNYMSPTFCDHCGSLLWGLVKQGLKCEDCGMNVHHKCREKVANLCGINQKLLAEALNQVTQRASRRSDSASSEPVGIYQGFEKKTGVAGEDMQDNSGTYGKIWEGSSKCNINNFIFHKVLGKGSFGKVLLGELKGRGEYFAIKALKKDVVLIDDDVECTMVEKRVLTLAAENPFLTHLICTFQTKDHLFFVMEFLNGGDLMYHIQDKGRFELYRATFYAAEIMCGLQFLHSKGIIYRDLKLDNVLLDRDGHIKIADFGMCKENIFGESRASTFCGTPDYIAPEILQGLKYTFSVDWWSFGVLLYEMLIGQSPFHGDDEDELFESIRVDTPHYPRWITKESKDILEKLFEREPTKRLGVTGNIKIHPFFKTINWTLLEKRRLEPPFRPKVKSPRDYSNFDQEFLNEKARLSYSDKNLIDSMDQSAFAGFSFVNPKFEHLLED
Sequence of Protein kinase C eta type (P24723 whole entry): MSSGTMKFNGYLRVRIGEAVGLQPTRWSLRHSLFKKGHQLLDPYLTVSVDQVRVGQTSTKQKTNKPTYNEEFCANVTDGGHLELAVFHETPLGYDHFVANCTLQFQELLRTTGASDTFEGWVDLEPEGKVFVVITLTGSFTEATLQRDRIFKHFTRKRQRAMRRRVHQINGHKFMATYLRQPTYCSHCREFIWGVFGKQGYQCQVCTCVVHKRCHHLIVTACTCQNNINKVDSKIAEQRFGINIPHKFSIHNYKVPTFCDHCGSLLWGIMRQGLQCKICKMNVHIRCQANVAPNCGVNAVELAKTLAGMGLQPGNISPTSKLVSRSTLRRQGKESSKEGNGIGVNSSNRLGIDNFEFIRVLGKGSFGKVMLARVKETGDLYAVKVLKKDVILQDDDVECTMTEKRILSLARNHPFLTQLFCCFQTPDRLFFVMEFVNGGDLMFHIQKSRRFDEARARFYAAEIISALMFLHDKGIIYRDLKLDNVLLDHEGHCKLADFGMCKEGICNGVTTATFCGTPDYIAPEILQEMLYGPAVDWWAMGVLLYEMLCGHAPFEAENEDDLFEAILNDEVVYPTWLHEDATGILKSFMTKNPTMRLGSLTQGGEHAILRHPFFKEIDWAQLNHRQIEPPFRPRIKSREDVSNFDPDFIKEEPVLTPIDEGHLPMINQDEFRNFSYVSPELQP

As for `CN1C2CCC1C(NC(=O)c1ccc(O)cc1)C(OC(=O)c1cc(O)c(C(=O)c3c(O)cccc3C(=O)O)c(O)c1)C2` (stereo in doubt; anti), the pIC50 (commonly the IC50 on a negative log10 scale, so that one unit is a factor of ten) in test [1] is 5.55; in test [2], 4.47; in test [3], 4.85; in [5] it was under 4.30; in test [6], 4.57; in test [7], 5.30. For the same compound, the pIC50 in [8] was 5.34; in test [9], 5.36. The IC50 – broadly, the concentration that inhibits the measured activity by half – in test [4] was over 50000 nM.
As to `O=C(NC1CNC[C@@H]1OC(=O)c1cc(O)c(C(=O)c2c(O)cccc2C(=O)O)c(O)c1)c1ccc(O)cc1` (mixture of isomers), the pIC50 in test [1] is 8.40; in test [2], 7.66; in test [3] it was 7.48; in test [5] it was under 6.82; in test [6], 7.82; in [7], 8.30. Besides, the pIC50 in test [8] is 7.85; in [9], 7.77. This compound also returned an IC50 in test [4] of 70 nM.
For the compound `O=C(NC1C2CC(C3CCCC32)C1OC(=O)c1cc(O)c(C(=O)c2c(O)cccc2C(=O)O)c(O)c1)c1ccc(O)cc1` (stereo in doubt; anti), the pIC50 was 7.30 in test [1]; 7.00 in test [2]; 7.52 in test [3]; 6.01 in test [6]; 7.30 in test [7]; 7.30 in [8]. The compound also showed a pIC50 in test [9] of 6.82. The IC50 in [4] was 32000 nM.
Regarding `O=C(NC1CN2CCC(CC2)C1OC(=O)c1cc(O)c(C(=O)c2c(O)cccc2C(=O)O)c(O)c1)c1ccc(O)cc1` (stereo in doubt; syn), the pIC50 in test [1] is 6.31; in test [2], 4.92; in test [3], 4.47; in test [6], 4.85; in test [7], 6.00; in [8], 5.34. Further, the pIC50 in [9] is 5.20. In [4], this compound came in with an IC50 of over 50000 nM.
With `O=C(NC1CCC[C@@H]1OC(=O)c1cc(O)c(C(=O)c2c(O)cccc2C(=O)O)c(O)c1)c1ccc(O)cc1` (mixture of isomers), the pIC50 in test [1] is 9.00; in test [2], 7.40; in [3], 7.30; in test [6], 7.30; in [7], 9.00; in test [8], 8.00. The compound also had a pIC50 in [9] of 7.40.
Take `CC1(C)C2CCC1(C)C(OC(=O)c1cc(O)c(C(=O)c3c(O)cccc3C(=O)O)c(O)c1)C2NC(=O)c1ccc(O)cc1` (stereo not drawn): the pIC50 was 6.51 in test [1]; 6.39 in test [2]; 7.10 in test [3]; under 4.30 in [5]; 5.44 in test [6]; 6.47 in test [7]. For the same compound, the values for the pIC50 in test [8] and in test [9] were 6.68 and 6.51, respectively. Besides, in test [4], the IC50 is 26000 nM.
Consider `O=C(NC1CN2CCC(CC2)C1OC(=O)c1cc(O)c(C(=O)c2c(O)cccc2C(=O)O)c(O)c1)c1ccc(O)cc1` (stereo in doubt; anti), for which the pIC50 in [1] is 7.59; in test [2] it was 6.38; in test [3] it was 7.16; in test [6], 6.77; in [7], 6.95; in test [8] it was 6.77. Moreover, the pIC50 in [9] was 7.59. This compound returned an IC50 in test [4] of 2000 nM.
Regarding `O=C(NC1C2CCC(C2)C1OC(=O)c1cc(O)c(C(=O)c2c(O)cccc2C(=O)O)c(O)c1)c1ccc(O)cc1` (racemic), the pIC50 in [1] is 7.70; in test [2] it was 7.26; in [3] it was 7.52; in test [6], 7.52; in test [7] it was 7.70; in [8], 7.46. The pIC50 in test [9] is 7.35. The compound also showed an IC50 in [4] of 1900 nM.
Consider `O=C(N[C@@H]1CNCCCC1OC(=O)c1cc(O)c(C(=O)c2c(O)cccc2C(=O)O)c(O)c1)c1ccc(O)cc1` (mixture of isomers), for which the pIC50 in test [1] is 7.66; in test [2], 7.13; in [3] it was 7.36; in test [5], 5.46; in test [7], 7.49; in test [8], 7.47. Further, the pIC50 in [9] is 7.49.
On to `O=C(NC1C2CC(C3CCCC32)C1OC(=O)c1cc(O)c(C(=O)c2c(O)cccc2C(=O)O)c(O)c1)c1ccc(O)cc1` (stereo in doubt; syn), for which the pIC50 is 5.72 in [1]; 5.57 in [2]; 5.68 in test [3]; 4.40 in test [6]; 5.70 in [7]; 5.80 in test [8]. Moreover, the pIC50 in [9] is 5.48. In test [4], this compound came in with an IC50 of over 50000 nM.
With `CN1C2CCC1C(NC(=O)c1ccc(O)cc1)C(OC(=O)c1cc(O)c(C(=O)c3c(O)cccc3C(=O)O)c(O)c1)C2` (stereo in doubt; syn), the pIC50 in [1] is 5.60; in [2] it was 4.46; in test [3], 4.66; in [5], under 4.30; in test [6] it was 4.31; in test [7], 5.42. Further, the pIC50 was 4.80 in test [8] and 4.66 in test [9]. Besides, the IC50 in test [4] is over 50000 nM.
Turning to `O=C(NC1C2CCC(C2)C1OC(=O)c1cc(O)c(C(=O)c2c(O)cccc2C(=O)O)c(O)c1)c1ccc(O)cc1` (stereo in doubt), the pIC50 in test [1] was 5.35; in test [2], 4.62; in test [3] it was 5.16; in [6] it was 5.82; in test [7] it was 5.46; in [8], 5.00. This compound gave a pIC50 in test [9] of 4.77. The IC50 in test [4] was over 50000 nM.
